Source: paper PMC6277555, “Short Symmetric-End Antimicrobial Peptides Centered on β-Turn Amino Acids Unit Improve Selectivity and Stability” (Frontiers in Microbiology, 2018)
In brackets after ≈: the same amount, converted by molar mass. Residues, ends and D or L forms follow the SMILES beside them.

What was measured:
[1] = RP-HPLC retention time as measure of relative hydrophobicity; assay type: physicochemical; settings: analytical RP-HPLC; hydrophobicity increases with retention time
Protocol: These peptides' […] identified via matrix-assisted laser desorption/ionization time-of-flight mass spectrometry (MALDI-TOF MS, Linear Scientific Inc., United States), using α-cyano-4-hydroxycinnamic acid as the matrix. […] Quantitative peptides were dissolved in deionized water and stored at -20°C before the assessments. The rest of the peptides were stored as powders at -20°C to prevent peptide degradation. The structures and molecular weights of the peptides were verified by MALDI-TOF MS. […] The relative hydrophobicity of the symmetric-end peptides was reliably reflected by their different HPLC retention times, and the hydrophobicity increased with increasing HPLC retention times ([Lee et al., 2014]; [Zhu et al., 2014]). The HPLC retention times for […]

B. pyocyaneum ATCC 27853 = assay type: cell-based, Bacterium pyocyaneum
Protocol: (§1) The minimal inhibitory concentration (MIC) was determined according to a previously described method ([Chou et al., 2016]). Bacteria were cultured overnight to mid-log phase in MHB at 37°C and then diluted to give final concentrations ranging from 2 × 10^5 to 7 × 10^5 CFU/mL. Then, 50 μL of serial twofold dilutions of the peptides were added to each well in 96-well microtiter plates with a mixed solution containing 0.01% acetic acid and 0.2% bovine serum albumin (BSA, Sigma) was used to dissolve and dilute the peptides. Then, equal amounts of bacterial aliquots were incubated with the above peptide solution for 18–24 h at 37°C. The experiment was performed in triplicate using three replicates for each peptide and each bacterium. The broth was employed as a negative control and the broth with microbial cells was used as a positive control. The lowest concentration of peptide that prevented visible turbidity was defined as the MIC.

S. typhimurium ATCC 7731 = assay type: cell-based, Salmonella entericaserovar Typhimurium
Protocol: as §1

S. aureus ATCC 43300 = assay type: cell-based, Staphylococcus aureus
Protocol: as §1

S. faecalis ATCC 29212 = assay type: cell-based, Streptococcus faecalis
Protocol: as §1

hRBCs = assay: Hemolytic activity; assay type: cell-based, human; settings: peptide concentration resulting in 5% hemolysis of hRBCs; PBS, 1 h, 37°C
Protocol: (§2) The hemolytic activity of the peptides was detected using a previously described modified method ([Wang et al., 2015]). One milliliter of fresh hRBCs was obtained from a healthy donor (Zhihua Wang, Harbin, China) in a polycarbonate tube containing heparin. The collected hRBCs were centrifuged at 1000 × g for 5 min at 4°C and resuspended in PBS buffer (pH 7.2). The hRBCs were washed three times and then incubated with an equal volume of the respective peptide dissolved in PBS for 1 h at 37°C. Then, the hRBC suspension was placed into a 96-well microtiter plater with 50 μL of tested peptide solution at different concentrations and the mixture was incubated for 1 h at 37°C. […] The minimum hemolytic concentrations (MHCs) were defined as the peptide concentrations resulting in 5% hemolysis.

[2] = test system: Gram-negative and Gram-positive bacterial strains; assay: Geometric mean of MICs and therapeutic index; assay type: cell-based
Protocol: as §2, §1

E. coli = assay: Time killing assay; assay type: cell-based, Escherichia coli; settings: mean of three independent assays
Protocol: The ability of peptides to kill bacterial cells was further investigated by analyzing the fraction of cell survival upon peptide treatment at various exposure times according to a previously described method ([Wiradharma et al., 2012]). Briefly, E. coli and S. aureus were treated at MIC and 2 × MIC concentrations with peptides. At various time periods (0, 5, 10, 30, 60, 90, 120, and 150 min), microbial suspensions were diluted at three different dilutions and plated on MHA plates. Microbial colonies were formed and counted after 24 h of incubation. The results were presented as the mean data from three independent assays.

[3] = LPS-binding assay (BODIPY-TR-cadaverine displacement); set-up: species or system Escherichia coli; settings: BC displacement at the MIC concentration; relative to 10 μg/mL polymyxin B
Protocol: The binding affinities of peptides to LPS were examined using the BODIPY-TR-cadaverine fluorescent dye (BC, Sigma, United States) displacement assay, in which a probe bound to cell-free LPS results in dequenching of BC fluorescence. Stock solutions of LPS from E. coli O111:B4 (5 mg/mL; Sigma-Aldrich, China) and BC (2.5 mg/mL; Sigma-Aldrich, China) were prepared and diluted in Tris buffer (pH 7.4, 50 mM) to reach a final concentration of 50 μg/mL of LPS and 5 μg/mL BC. A 100 μL aliquot of the LPS-probe and peptide mixture (50 μL LPS and BC solutions at final concentrations of 25 μg/mL LPS and 2.5 μg/mL BODIPY-TR-cadaverine, 50 μL peptide with various concentrations ranging from 1 to 64 μM) was added in a sterile 96-well black plate. The fluorescence was measured on a spectrofluorophotometer (the Infinite 200 pro, Tecan, China) at excitation and emission wavelengths of 580 and 620 nm, respectively, with each test performed independently in triplicate. The values were converted to % ΔF (AU) using the following equation:
where Fobs is the observed fluorescence at a given peptide concentration, F0 is the initial fluorescence of BC with LPS in the absence of peptides, and F100 is the BC fluorescence with LPS cells upon addition of 10 μg/mL polymyxin B, which is a prototype LPS binder and was used as a positive control.

[4] = test system: total genomic DNA from E. coli; assay: DNA binding assay (gel retardation); set-up: species or system Escherichia coli; settings: 1 h
Protocol: Gel retardation experiments were performed as previously described ([Zhu et al., 2015]). The total genomic DNA from E. coli was extracted using the rapid bacterial genomic DNA isolation kit (Sangon Biotech, China). First, increasing concentrations of peptides were mixed with 400 ng of genomic DNA in 20 μL of binding buffer [5% glycerol, 10 mM Tris-HCl (pH 8.0), 1 mM EDTA, 1 mM dithiothreitol, 20 mM KCl, and 50 μg/mL bovine serum albumin] and incubated at 37°C for 1 h. Next, 4 μL of native loading buffer [10% Ficoll 400, 10 mM Tris-HCl (pH 7.5), 50 mM EDTA, 0.25% bromophenol blue, and 0.25% xylene cyanol] was mixed with the samples and a 12 μL aliquot was subjected to 1% agarose gel electrophoresis in 0.5× Tris borate-EDTA buffer (45 mM Tris-borate and 1 mM EDTA, pH 8.0). Finally, gel retardation was visualized using UVP bioimaging systems.

In the case of CC[C@H](C)[C@H](N)C(=O)N[C@@H](Cc1c[nH]cn1)C(=O)N[C@@H](CCCCN)C(=O)N[C@@H](Cc1ccccc1)C(=O)N[C@@H](Cc1c[nH]c2ccccc12)C(=O)N[C@@H](CCCNC(=N)N)C(=O)N[C@@H](CS)C(=O)N[C@@H](CCCNC(=N)N)C(=O)N[C@@H](CCCNC(=N)N)C(=O)N[C@@H](CCCNC(=N)N)C(=O)N[C@@H](Cc1ccccc1)C(=O)N[C@@H](CS)C(=O)N[C@@H](CCCNC(=N)N)C(=O)N[C@@H](Cc1c[nH]c2ccccc12)C(=O)N[C@@H](Cc1ccccc1)C(=O)N[C@@H](CCCCN)C(=O)N[C@@H](Cc1c[nH]cn1)C(=O)N[C@H](C(N)=O)[C@@H](C)CC [PQ] (H-IHKFWRCRRRFCRWFKHI-NH2; N-terminus assumed), the “Retained time (HPLC retention time)” value [1] is reported as 12.385 min, the MIC (B. pyocyaneum ATCC 27853) is reported as 8 µM (≈ 20.6 µg/mL) and the MIC (S. typhimurium ATCC 7731) is reported as 8 µM (≈ 20.6 µg/mL). For the same molecule, the MIC (S. aureus ATCC 43300) was 8 µM (≈ 20.6 µg/mL), the MIC (S. faecalis ATCC 29212) was 16 µM (≈ 41.2 µg/mL) and the “MHC (minimum hemolytic concentration)” value (hRBCs) was greater than 128 µM. The “GM (geometric mean of the MIC values)” value ([2]; all ten tested strains) was 9.8 µM, the Therapeutic index ([2]; from MHC and GM) was 26.1 and the “Time to kill E. coli” value (E. coli; peptide at 1 × MIC) was 30 min. The “Time to kill E. coli” value (E. coli; peptide at 2 × MIC) was 30 min, the “LPS binding, fluorescence (% ΔF)” value [3] was “above 80%” and the “Concentration showing DNA-binding ability” value [4] was greater than 128 µM.
